# Patent US20020115640A1, “Farnesyltransferase inhibitors” (priority 2000, published 2002)
# Biological target: T1, farnesyltransferase (Rattus norvegicus, UniProt Q02293+Q04631)
# T1 construct: The enzyme can be purified according to Cell, 62: 81-88 (1990), utilizing steps one, two, and three; from tissue; host or cells: rat brain
# Assay: Inhibition of farnesyltransferase (3H-farnesyldiphosphate / H-Ras filter assay)
# Type: biochemical
# Settings: test compound at 10^−7 M; 3H-farnesyldiphosphate 0.6 μM, H-Ras 5.0 μM, 37° C., 30 minutes
# Excerpt: The ability of the compounds of the present invention to inhibit farnesyltransferase can be measured according to the method described in J. Biol. Chem., 266: 14603 (1991) or J. Biol. Chem., 270:660-664 (1995). Procedures for determination of the inhibition of farnesylation of the oncogene protein Ras are described in J. Biol. Chem., 266:15575-15578 (1991) and U.S. Pat. No. 5,245,061. Inhibition of rat brain farnesyltransferase can also be measured in vitro using an Amersham Life Science commercial scintillation proximity assay kit and substituting a biotin-K Ras B fragment (0.1 μM final concentration) for the biotin-lamin substrate provided by Amersham. The enzyme can be purified according to Cell, 62: 81-88 (1990), utilizing steps one, two, and three. […] The percent inhibition of the farnesylation caused by the compounds of the present invention (at 10^−6 M) compared to an uninhibited control sample can be evaluated in the same Amersham test system.
# The mixture was brought to 37° C., treated with enzyme, incubated for 30 minutes, treated with 1 M HCl/ethanol (1 mL) to stop the reaction, stirred for 15 minutes at room temperature, diluted with ethanol (2 mL), filtered through a 2.5 cm glass microfiber filter (Whatman) with ethanol rinses (4×2 mL). The glass transferred to a scintillation vial and treated with scintillation fluid (5 mL). The radioisotope retained on the glass fiber filter was counted and reflected the activity of the enzyme.
# T1 sequence (Q02293 whole entry, one chain of several): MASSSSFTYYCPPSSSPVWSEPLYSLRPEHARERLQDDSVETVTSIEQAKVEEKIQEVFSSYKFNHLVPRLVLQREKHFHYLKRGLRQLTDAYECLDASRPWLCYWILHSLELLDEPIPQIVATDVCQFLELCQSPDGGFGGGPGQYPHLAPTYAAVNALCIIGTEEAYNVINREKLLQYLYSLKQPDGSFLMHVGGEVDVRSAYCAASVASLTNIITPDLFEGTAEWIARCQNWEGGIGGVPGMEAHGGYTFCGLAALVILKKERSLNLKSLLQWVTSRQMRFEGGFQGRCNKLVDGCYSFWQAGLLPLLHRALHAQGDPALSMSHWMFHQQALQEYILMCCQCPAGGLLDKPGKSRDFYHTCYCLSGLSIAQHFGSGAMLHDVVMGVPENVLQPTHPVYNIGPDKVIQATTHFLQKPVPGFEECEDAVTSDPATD
row,inhibition at 0.1 µM [%],SMILES
1,87,"Cn1cncc1C(OCc1cc(=O)c(C#N)cn1-c1cccc(Cl)c1)c1ccc(C#N)cc1 (stereo not drawn) [Example 42, 1-(3-chlorophenyl)-6-(((4-cyanophenyl)(1-methyl-1H-imidazol-5-yl)methoxy)methyl)-4-oxo-1,4-dihydro-3-pyridinecarbonitrile]"
2,90,"Cn1cncc1C(OCc1ccc(Cl)cc1-c1ccccc1Cl)c1ccc(C#N)cc1 (stereo not drawn) [Example 3, 4-(((2′,5-dichloro(1,1′-biphenyl)-2-yl)methoxy)(1-methyl-1H-imidazol-5-yl)methyl)benzonitrile]"
3,> 83,"CC(=O)c1ccc(-c2cc(Cl)ccc2COC(c2ccc(C#N)cc2)c2cncn2C)cc1 (stereo not drawn) [Example 16, 4-(((4′-acetyl-5-chloro(1,1′-biphenyl)-2-yl)methoxy)(1-methyl-1H-imidazol-5-yl)methyl)benzonitrile]"
4,64,"CC(=O)Nc1cccc(-c2cc(Cl)ccc2COC(c2ccc(C#N)cc2)c2cncn2C)c1 (stereo not drawn) [Example 22, N-(5′-chloro-2′-(((4-cyanophenyl)(1-methyl-1H-imidazol-5-yl)methoxy)methyl)(1,1′-biphenyl)-3-yl)acetamide]"
5,100,"Cn1cncc1C(OCc1c(-c2cccc(Cl)c2)cc(C#N)c(=O)n1C)c1ccc(C#N)cc1F (stereo not drawn) [Example 53, 5-(3-chlorophenyl)-6-(((4-cyano-2-fluorophenyl)(1-methyl-1H-imidazol-5-yl)methoxy)methyl)-1-methyl-2-oxo-1,2-dihydro-3-pyridinecarbonitrile]"
6,89,"Cn1cncc1C(OCc1c[nH]c(=O)cc1-c1cccc(Cl)c1)c1ccc(C#N)cc1 (stereo not drawn) [Example 44, 4-(((4-(3-chlorophenyl)-6-oxo-1,6-dihydro-3-pyridinyl)methoxy)(1-methyl-1H-imidazol-5-yl)methyl)benzonitrile]"
7,> 97,"Cn1cncc1C(OCc1ccc(C#N)cc1-c1cccc(Cl)c1)c1ccc(C#N)cc1 (stereo not drawn) [Example 34, 3′-chloro-6-(((4-cyanophenyl)(1-methyl-1H-imidazol-5-yl)methoxy)methyl)(1,1′-biphenyl)-3-carbonitrile]"
8,100,"Cn1cncc1C(OCc1c(-c2cccc(Cl)c2)cc(C#N)c(=O)n1C)c1ccc(C#N)c(Cl)c1 (stereo not drawn) [Example 54, 6-(((3-chloro-4-cyanophenyl)(1-methyl-1H-imidazol-5-yl)methoxy)methyl)-5-(3-chlorophenyl)-1-methyl-2-oxo-1,2-dihydro-3-pyridinecarbonitrile]"
9,47,"Cn1cncc1C(OCc1ccc(Cl)cc1-c1cc(Cl)cc(Cl)c1)c1ccc(C#N)cc1 (stereo not drawn) [Example 27, 4-((1-methyl-1H-imidazol-5-yl)((3′,5,5′-trichloro(1,1′-biphenyl)-2-yl)methoxy)methyl)benzonitrile]"
10,> 85,"Cc1ccc(-c2cc(Cl)ccc2COC(c2ccc(C#N)cc2)c2cncn2C)cc1C (stereo not drawn) [Example 17, 4-(((5-chloro-3′,4′-dimethyl(1,1′-biphenyl)-2-yl)methoxy)(1-methyl-1H-imidazol-5-yl)methyl)benzonitrile]"
11,73,"Cn1cncc1C(OCc1ccc(Cl)cc1I)c1ccc(C#N)cc1 (stereo not drawn) [Example 1, 4-(((4-chloro-2-iodobenzyl)oxy)(1-methyl-1H-imidazol-5-yl)methyl)benzonitrile]"
12,> 85,"Cn1cncc1C(OCc1ccc(Cl)cc1-c1ccc(Cl)c(Cl)c1)c1ccc(C#N)cc1 (stereo not drawn) [Example 28, 4-((1-methyl-1H-imidazol-5-yl)((3′,4′,5-trichloro(1,1′-biphenyl)-2-yl)methoxy)methyl)benzonitrile]"
13,79,"COc1ccccc1-c1cc(Cl)ccc1COC(c1ccc(C#N)cc1)c1cncn1C (stereo not drawn) [Example 5, 4-(((5-chloro-2′-methoxy(1,1′-biphenyl)-2-yl)methoxy)(1-methyl-1H-imidazol-5-yl)methyl)benzonitrile]"
14,100,"Cn1cncc1C(OCc1ccc(C#N)cc1NS(=O)(=O)c1cccs1)c1ccc(C#N)cc1 (stereo not drawn) [Example 46, N-(5-cyano-2-(((4-cyanophenyl)(1-methyl-1H-imidazol-5-yl)methoxy)methyl)phenyl)-2-thiophenesulfonamide]"

# Same assay, conditions: test compound at 10^−8 M; 3H-farnesyldiphosphate 0.6 μM, H-Ras 5.0 μM, 37° C., 30 minutes
row,inhibition at 0.01 µM [%],SMILES
1,94,"CCCOc1ccc(-c2cc(C#N)ccc2COC(c2ccc(C#N)cc2)c2cncn2C)cn1 (stereo not drawn) [Example 92, 4-(((4-cyanophenyl)(1-methyl-1H-imidazol-5-yl)methoxy)methyl)-3-(6-propoxypyridin-3-yl)benzonitrile]"
2,96,"Cn1cncc1C(N)(COc1ccc(C#N)cc1-c1ccc(OC(F)(F)F)cc1)c1ccc(C#N)cc1 (stereo not drawn) [Example 83, 6-(2-amino-2-(4-cyanophenyl)-2-(1-methyl-1H-imidazol-5-yl)ethoxy)-4′-(trifluoromethoxy)-1,1′-biphenyl-3-carbonitrile]"
3,77,"CCCn1cc(-c2cc(C#N)ccc2COC(c2ccc(C#N)cc2)c2cncn2C)ccc1=O (stereo not drawn) [Example 91, 4-(((4-cyanophenyl)(1-methyl-1H-imidazol-5-yl)methoxy)methyl)-3-(6-oxo-1-propyl-1,6-dihydropyridin-3-yl)benzonitrile]"
4,73,"Cn1cncc1C(F)(COc1ccc(C#N)cc1-c1cccc2cccnc12)c1ccc(C#N)cc1 (stereo not drawn) [Example 60, 4-(2-(4-cyanophenyl)-2-fluoro-2-(1-methyl-1H-imidazol-5-yl)ethoxy)-3-quinolin-8-ylbenzonitrile]"
5,95,"Cn1cncc1C(F)(COc1ccc(C#N)cc1-c1cccc(F)c1)c1ccc(C#N)cc1 (stereo not drawn) [Example 76, 6-(2-(4-cyanophenyl)-2-fluoro-2-(1-methyl-1H-imidazol-5-yl)ethoxy)-3′-fluoro-1,1′-biphenyl-3-carbonitrile]"
6,98,"COc1cccc(-c2cc(C#N)ccc2OCC(O)(c2ccc(C#N)cc2)c2cncn2C)c1 (stereo not drawn) [Example 57, 6-(2-(4-cyanophenyl)-2-hydroxy-2-(1-methyl-1H-imidazol-5-yl)ethoxy)-3′-methoxy-1,1′-biphenyl-3-carbonitrile]"
7,98,"Cn1cncc1C(O)(COc1ccc(C#N)cc1-c1cccc(Cl)c1)c1ccc(C#N)cc1 (stereo not drawn) [Example 77, 3′-chloro-6-(2-(4-cyanophenyl)-2-hydroxy-2-(1-methyl-1H-imidazol-5-yl)ethoxy)-1,1′-biphenyl-3-carbonitrile]"
8,93,"Cn1cncc1C(F)(COc1ccc(C#N)cc1-c1ccc(F)c(F)c1)c1ccc(C#N)cc1 (stereo not drawn) [Example 62, 6-(2-(4-cyanophenyl)-2-fluoro-2-(1-methyl-1H-imidazol-5-yl)ethoxy)-3′,4′-difluoro-1,1′-biphenyl-3-carbonitrile]"
9,96,"Cn1cncc1C(O)(COc1ccc(C#N)cc1-c1ccc(F)c(F)c1)c1ccc(C#N)cc1 (stereo not drawn) [Example 61, 6-(2-(4-cyanophenyl)-2-hydroxy-2-(1-methyl-1H-imidazol-5-yl)ethoxy)-3′,4′-difluoro-1,1′-biphenyl-3-carbonitrile]"
10,91,"Cc1ccnc(NC(=O)c2cc(C#N)ccc2COC(c2ccc(C#N)cc2)c2cncn2C)c1 (stereo not drawn) [Example 87, 5-cyano-2-(((4-cyanophenyl)(1-methyl-1H-imidazol-5-yl)methoxy)methyl)-N-(4-methylpyridin-2-yl)benzamide]"
11,91,"Cn1cncc1C(F)(COc1ccc(C#N)cc1-c1cc(F)cc(F)c1)c1ccc(C#N)cc1 (stereo not drawn) [Example 68, 6-(2-(4-cyanophenyl)-2-fluoro-2-(1-methyl-1H-imidazol-5-yl)ethoxy)-3′,5′-difluoro-1,1′-biphenyl-3-carbonitrile]"
12,94,"Cn1cncc1C(F)(COc1ccc(C#N)cc1-c1cccc(OC(F)(F)F)c1)c1ccc(C#N)cc1 (stereo not drawn) [Example 70, 6-(2-(4-cyanophenyl)-2-fluoro-2-(1-methyl-1H-imidazol-5-yl)ethoxy)-3′-(trifluoromethoxy)-1,1′-biphenyl-3-carbonitrile]"
13,95,"Cn1cncc1C(F)(COc1ccc(C#N)cc1-c1cc(Cl)cc(Cl)c1)c1ccc(C#N)cc1 (stereo not drawn) [Example 74, 3′,5′-dichloro-6-(2-(4-cyanophenyl)-2-fluoro-2-(1-methyl-1H-imidazol-5-yl)ethoxy)-1,1′-biphenyl-3-carbonitrile]"
14,93,"Cn1cncc1C(F)(COc1ccc(C#N)cc1-c1ccc(F)c(Cl)c1)c1ccc(C#N)cc1 (stereo not drawn) [Example 66, 3′-chloro-6-(2-(4-cyanophenyl)-2-fluoro-2-(1-methyl-1H-imidazol-5-yl)ethoxy)-4′-fluoro-1,1′-biphenyl-3-carbonitrile]"
15,96,"Cn1cncc1C(O)(COc1ccc(C#N)cc1-c1cccc(F)c1)c1ccc(C#N)cc1 (stereo not drawn) [Example 75, 6-(2-(4-cyanophenyl)-2-hydroxy-2-(1-methyl-1H-imidazol-5-yl)ethoxy)-3′-fluoro-1,1′-biphenyl-3-carbonitrile]"

# Same assay, conditions: test compound at 10^−9 M (stated in the cell); 3H-farnesyldiphosphate 0.6 μM, H-Ras 5.0 μM, 37° C., 30 minutes
row,% Inhibition at 10^−9 M,SMILES
1,90 (10^−9M) %,"Cn1cncc1[C@](O)(COc1ccc(C#N)cc1-c1ccc(OC(F)(F)F)cc1)c1ccc(C#N)cc1 (single isomer, unassigned) [Example 93]"
